Where two headings read alike, the source gives them in different places.
Legend:
[1] = test system: SOX17 (endoderm marker) in RUES2-GLR cells; test: DevTox GLR-Endo assay: decrease in percent SOX17-positive cells (AEID 3094, Sox17_dn); conditions: for Hit Call: Table S2, SOX17-positive cells, cutoff 3*bmad; for DevTox ACC: Table S2, percent SOX17-positive cells; for DevTox-GLR Endo ACC: activity concentration at cutoff, SOX17-positive cells; for HIT−CALL: tcpl plot AEID3094, COFF 20.3
Method in brief: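 Readouts are loss of SOX17-positive fraction and reduced cell number in endoderm-differentiating RUES2-GLR cells after 48 h of chemical exposure. Controls: undifferentiated and differentiated cells, 0.2% DMSO, and 1 µM SB431542; at least four biological replicates.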

in vitro = conditions: human
RUES2-GLR cells [2] = test: DevTox GLR-Endo assay: decrease in total cell count, cytotoxicity (AEID 3098, CellCount_dn); conditions: for Emax: Homo sapiens, read-out: Cell Count % Max Inhibition
[3] = test system: SOX17 (endoderm marker) in RUES2-GLR cells; test: DevTox GLR-Endo assay: increase in percent SOX17-positive cells (AEID 3093, Sox17_up); type: cell-based, human; conditions: for Emax: Homo sapiens; for HIT−CALL: tcpl plot AEID3093, COFF 20.3
Procedure: (§1) The total test chemical incubation period was 48 h.
(§2) (Supplementary Materials).

[4] = test system: BRA (mesoderm marker) in RUES2-GLR cells; test: DevTox GLR-Endo assay: increase in percent BRA-positive cells (AEID 3096, Bra_up); type: cell-based, human; conditions: for HIT−CALL: tcpl plot AEID3096, COFF 0.774; for MAX_MEAN: tcpl plot AEID3096, maximum mean response; for MAX_MED: tcpl plot AEID3096, maximum median response
Procedure: as §1, §2

[5] = test system: SOX17 in H9 human ESC line; conditions: SOX17 half-maximal inhibition concentration; read-out: hPST IC50; cited from earlier work
H9 human ESC line = conditions: cited from earlier work
[6] = test system: o/c ratio in H9 embryonic stem cells; conditions: Teratogen Index, cited from earlier work; for quickPredict TI: o/c ratio
H9 embryonic stem cells = conditions: cited from earlier work
[7] = cited from earlier work; for Development Toxicant Classification: Table S2; for Classification: developmental toxicant classification (Teratogen / Non-Teratogen) of reference and training chemicals, ref DOI per chemical: 10.1093/toxsci/kft239, 10.1093/toxsci/kfaa014, 10.1177/026119290203000204, 10.1038/s41598-020-59542-x; for DT Class.: developmental toxicant classification
[8] = test system: SOX2 (ectoderm and pluripotency marker) in RUES2-GLR cells; test: DevTox GLR-Endo assay: increase in percent SOX2-positive cells (AEID 3095, Sox2_up); conditions: for MAX_MEAN: tcpl plot AEID3095, maximum mean response; for MAX_MED: tcpl plot AEID3095, maximum median response; for AC50 / Emax: Homo sapiens; for AC50: read-out: ga (winning model); for Emax: read-out: tp (winning model);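 for all read-outs here: cells exposed to test chemicals for 48 h in total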
Procedure: RUES2-GLR cells were seeded 24 h prior to differentiation initiation into vitronectin-coated 384-well CellCarrier Ultra plates (10.6 mm^2/well) (Perkin Elmer, Waltham, MA, USA). Vitronectin (0.5 µg/cm^2)-coated plates were prepared and stored at 4 °C, wrapped in parafilm, for less than seven days and incubated at room temperature for one hour prior to cell seeding. […] Cells were dispensed into 20 µL coating solution using a Certus FLEX Micro Dispenser (Fritz Gyger, Gwatt, Switzerland) with a 0.45 µm valve to a final volume of 100 µL and density of 2.8 × 10^3 cells per well.
Following a 24 h post-seeding incubation period (Time = 0 h) (Figure 3A), directed endoderm differentiation was initiated with the PSC Definitive Endoderm Induction kit (Gibco, Waltham, MA, USA). […] A target dilution series (0.002–200 µM) was generated by dispensing variable nanoliter volumes of test chemical and backfilling with a complementary volume of DMSO using Echo Cherry Pick software (v.1.6.2). Wells were backfilled with 50 µL of induction medium using a Certus FLEX Micro Dispenser with 0.45 µm valves. Test compound treatment plates were mixed on a Multi-Microplate Genie mixer at 700 rpm for 10 min and subsequently incubated for two hours in a humidified atmosphere at 37 °C with 5% CO2. Each chemical treatment (0 h–Medium A; 24 h–Medium B) were prepared the day of treatment. At 0 h, cell culture medium was aspirated from the assay plate at a rate of 1 µL/s and 40 µL of Medium A ± test chemical applied using a CyBio FeliX automated liquid handler (Analytik Jena, Jena, Germany). At 24 h, conditioned cell culture medium was aspirated and 40 µL of Medium B ± test chemical was applied. At 48 h, cells were prepared for high-content image acquisition by fixation and nuclear staining. The total test chemical incubation period was 48 h. For fixation, a 4% paraformaldehyde (PFA) solution was achieved by adding 40 µL of 8% PFA directly to cell culture medium using a CyBio FeliX liquid handler. […] Following an additional 30 min incubation period at room temperature, staining solution was aspirated, 50 µL of DPBS was added, and plate sealed with MicroAmp Optical Adhesive Film (Applied Biosystems, Waltham, MA, USA).
Images were acquired within 12 h post-fixation using an Opera Phenix High-Content Screening System (Perkin Elmer, Waltham, MA, USA). […] Cell identification and mean biomarker fluorescent intensities were calculated using Harmony image analysis software (Perkin Elmer, Waltham, MA, USA). Cell nuclei were identified using the object classifying algorithm C of the software with border objects excluded using the “Remove Border Objects” feature. Mean cell biomarker intensity statistics were gathered from each object and exported for further analysis using a custom script in Python version 3.7.4 [61] […] For each plate, pluripotent-negative control wells were used to establish baseline intensity values and a cutoff threshold for determining SOX17 and BRA biomarker-positive cells. Endoderm differentiated positive control wells were used to establish baseline intensity values and a cutoff threshold for SOX2-positive cells. Cells with a mean intensity five times the baseline median absolute deviation (5*bmad) above the median cell intensity for plate-based control population technical replicates were considered positive. Well-based cell counts, reflected by the sum of total counted objects from all fields, were used to calculate the percent responders for each respective biomarker and evaluate cytotoxicity. Well-level results were exported for data modeling in the ToxCast Pipeline.
The ToxCast Pipeline R package (tcpl v.2.0.2) was used to normalize, fit, and qualify concentration-response screening data [63].

RUES2-GLR cells [9] = test: DMSO tolerance test under directed endoderm differentiation (SOX17-positive cells, cell count); type: cell-based, human; conditions: DMSO 0.2%
Procedure: To identify biomarker-positive populations during directed endoderm differentiation, RUES2-GLR cells were evaluated by high-content confocal imaging. […] A qualitative loss of SOX2 expression and increased SOX17 expression were evident, indicating loss in pluripotency and commitment to definitive endoderm, respectively (Figure 2A).

H9 ESCs = conditions: global gene expression at 6, 96 and 192 h; cited from earlier work
[10] = Homo sapiens, 48 h, read-out: DevTox-GLR Endo AC50 (µM), SOX17 half-maximal activity concentration, 48 h exposure
[11] = Homo sapiens, read-out: DevTox % Max Inhibition
[12] = Homo sapiens, read-out: MAX_MEAN
[13] = Homo sapiens, read-out: MAX_MED
[14] = Homo sapiens, read-out: ga (winning model), tcpl plot AEID3094, gain parameter of winning curve fit (log concentration, µM axis), hit calls only (converted)
[15] = Homo sapiens, read-out: tp (winning model)
[16] = tcpl plot AEID3093, maximum mean response, read-out: MAX_MEAN
[17] = tcpl plot AEID3093, maximum median response, read-out: MAX_MED
[18] = cytotoxicity half-maximal concentration
[19] = concentration at cell viability cutoff
[20] = chemicals common with quickPredict

CCCC(CCC)C(=O)O [Valproic Acid]
SOX17 ACC relative to cytotoxic concentration (in words) [1]: below cytotoxic concentrations
AC50 [1, 10]: 124 µM
Emax [1, 11]: 22.3%
Emax [1, 12]: 22%
Emax [1, 13]: 22.3%
AC50 [1, 14]: 123 µM
Emax [1, 15]: 29.3%
Hit Call [1]: Positive
DevTox ACC ([1]; 48 h exposure): 177.332 µM
DevTox-GLR Endo ACC ([1]; 48 h exposure): 177.33 µM
HIT−CALL [1]: 1
CC50 at 48 h (in vitro): > 200 µM
Emax (RUES2-GLR cells [2]): 18.1%
Cell Count ACC (RUES2-GLR cells [2]; human, 48 h): >200 µM
Emax [3, 16]: 7.73%
Emax [3, 17]: 5.59%
HIT−CALL [3]: 0
HIT−CALL [4]: 0
MAX_MEAN [4]: 0.771 Percent Activity
MAX_MED [4]: 0.815 Percent Activity
IC50 [5]: 2.6 µM
hPST TC50 (H9 human ESC line; [18]): 3.3 µM
hPST TC50 (H9 human ESC line; hPST cytotoxicity): 3.3 µM
quickPredict TI [6]: 155 µM
quickPredict CV (H9 embryonic stem cells; [19]): 271 µM
Development Toxicant Classification [7]: Positive
Classification [7]: Teratogen
DT Class. ([7]; chemicals common with hPST): Pos
DT Class. [7, 20]: Pos
MAX_MEAN [8]: 1.25 Percent Activity
MAX_MED [8]: 0.475 Percent Activity

C[S+](C)[O-] [DMSO, dimethyl sulfoxide]
effect on cell counts (in words) (RUES2-GLR cells [9]): without affecting cell counts
reduction of the SOX17 population (RUES2-GLR cells [9]): 19.5%

O=c1[nH]cc(F)c(=O)[nH]1 [5-Fluorouracil]
AC50 [1, 10]: 8.48 µM
Emax [1, 11]: 102%
Emax [1, 12]: 102%
Emax [1, 13]: 102%
AC50 [1, 14]: 8.49 µM
Emax [1, 15]: 102%
Hit Call [1]: Positive
DevTox ACC ([1]; 48 h exposure): 7.071 µM
DevTox-GLR Endo ACC ([1]; 48 h exposure): 7.07 µM
HIT−CALL [1]: 1
CC50 at 48 h (in vitro): 5.72 µM
effect on cell count (in words) (RUES2-GLR cells [2]): significant decreases in cell count
Emax (RUES2-GLR cells [2]): 91%
Cell Count ACC (RUES2-GLR cells [2]; human, 48 h): 4.179 µM
DevTox-GLR Endo CC (RUES2-GLR cells [2]; human, 48 h): 20.34 µM
Emax [3, 16]: 3.38%
Emax [3, 17]: 4.48%
HIT−CALL [3]: 0
IC50 [5]: 0.6 µM
hPST TC50 (H9 human ESC line; [18]): 0.7 µM
hPST TC50 (H9 human ESC line; hPST cytotoxicity): 0.7 µM
quickPredict TI [6]: 2.02 µM
quickPredict CV (H9 embryonic stem cells; [19]): 1.45 µM
Development Toxicant Classification [7]: Positive
Classification [7]: Teratogen
DT Class. ([7]; chemicals common with hPST): Pos
DT Class. [7, 20]: Pos
AC50 [8]: 18.6 µM
Emax [8]: 5.33%
MAX_MEAN [8]: 6.64 Percent Activity
MAX_MED [8]: 5.57 Percent Activity

CC1=C(/C=C/C(C)=C/C=C/C(C)=C/C(=O)O)C(C)(C)CCC1
IC50 ([1]; Homo sapiens, 48 h): 0.16 µM
AC50 [1, 10]: 0.1 µM
Emax [1, 11]: 101%
Emax [1, 12]: 101%
Emax [1, 13]: 101%
AC50 [1, 14]: 0.101 µM
Emax [1, 15]: 99.2%
Hit Call [1]: Positive
DevTox ACC ([1]; 48 h exposure): 0.04166 µM
DevTox-GLR Endo ACC ([1]; 48 h exposure): 0.04 µM
% Max Inhibition ([1]; maximum inhibition of SOX17-positive cells, reference chemical testing, 48 h exposure): 93%
HIT−CALL [1]: 1
CC50 at 48 h (in vitro; RUES2-GLR cells under directed endoderm differentiation): 5.53 µM
Emax (RUES2-GLR cells [2]): 97.6%
Cell Count ACC (RUES2-GLR cells [2]; human, 48 h): 3.839 µM
DevTox-GLR Endo CC (RUES2-GLR cells [2]; human, 48 h): 3.84 µM
Emax [3, 16]: 4.3%
Emax [3, 17]: 3.82%
HIT−CALL [3]: 0
increase of BRA protein expression (in words) ([4]; AEID 3096, 48 h exposure): lack of significant BRA perturbation
IC50 [5]: 0.07 µM
hPST TC50 (H9 human ESC line; [18]): 33 µM
hPST TC50 (H9 human ESC line; hPST cytotoxicity): 33 µM
quickPredict TI [6]: 0.003 µM
toxicological tipping point concentration (H9 ESCs): 17 ± 11 nM
Development Toxicant Classification [7]: Positive
Classification [7]: Teratogen
DT Class. ([7]; chemicals common with hPST): Pos
DT Class. [7, 20]: Pos
Developmental Toxicant Classification ([7]; reference chemicals): Positive
AC50 [8]: 87.1 µM
Emax [8]: 71.4%
MAX_MEAN [8]: 50.7 Percent Activity
MAX_MED [8]: 53.1 Percent Activity

CC(O)CO (centres unmarked) [1,2-Propylene glycol]
Hit Call [1]: Negative
DevTox % Max Inhibition ([1]; Table S2, percent SOX17-positive cells relative to DMSO): 5.484%
DevTox ACC ([1]; 48 h exposure): >200 µM
HIT−CALL [1]: 0
MAX_MEAN ([1]; tcpl plot AEID3094, maximum mean response): 3.45 Percent Activity
MAX_MED ([1]; tcpl plot AEID3094, maximum median response): 5.48 Percent Activity
Cell Count ACC (RUES2-GLR cells [2]; Table S2, 48 h exposure): >200 µM
Cell Count % Max Inhibition (RUES2-GLR cells [2]; Table S2, cell count relative to DMSO): 12.9966%
HIT−CALL [3]: 0
MAX_MEAN ([3]; tcpl plot AEID3093, maximum mean response): 8.27 Percent Activity
MAX_MED ([3]; tcpl plot AEID3093, maximum median response): 7.58 Percent Activity
HIT−CALL [4]: 0
MAX_MEAN [4]: 0.919 Percent Activity
MAX_MED [4]: 0.955 Percent Activity
quickPredict TI [6]: 327552 µM
quickPredict TI (µM) [6]: 327,552 µM
quickPredict CV (H9 embryonic stem cells; cell viability): 246664 µM
quickPredict CV (µM) (H9 embryonic stem cells; [19]): 246,664 µM
Development Toxicant Classification [7]: Negative
Classification [7]: Non-Teratogen
DT Class. [7, 20]: Neg
MAX_MEAN [8]: 0.616 Percent Activity
MAX_MED [8]: 0.577 Percent Activity

CS(=O)(=O)OCCCCOS(C)(=O)=O [Busulfan]
Emax [1, 11]: 100%
Emax [1, 12]: 100%
Emax [1, 13]: 100%
AC50 [1, 14]: 38.9 µM
Emax [1, 15]: 101%
Hit Call [1]: Positive
DevTox ACC ([1]; 48 h exposure): 25.262 µM
DevTox-GLR Endo ACC ([1]; 48 h exposure): 25.26 µM
HIT−CALL [1]: 1
effect on cell count (in words) (RUES2-GLR cells [2]): significant decreases in cell count
Emax (RUES2-GLR cells [2]): 82.3%
Cell Count ACC (RUES2-GLR cells [2]; human, 48 h): 5.795 µM
DevTox-GLR Endo CC (RUES2-GLR cells [2]; human, 48 h): 5.79 µM
Emax [3, 16]: 7.27%
Emax [3, 17]: 12.6%
HIT−CALL [3]: 0
HIT−CALL [4]: 0
MAX_MEAN [4]: 2.12 Percent Activity
MAX_MED [4]: 2.19 Percent Activity
quickPredict TI [6]: 2.31 µM
quickPredict CV (H9 embryonic stem cells; [19]): 4.91 µM
Development Toxicant Classification [7]: Positive
Classification [7]: Teratogen
DT Class. [7, 20]: Pos
AC50 [8]: 145 µM
Emax [8]: 4.09%
MAX_MEAN [8]: 2.43 Percent Activity
MAX_MED [8]: 2.59 Percent Activity
